The IC50 is the concentration that gives 50% inhibition.

8 molecules from patent publication US12649727B2, “EFGR inhibitor, preparation method therefor and application thereof” (Abbisko Therapeutics Co., Ltd, priority 2020, dated 2026) can be followed below.

Molecules are shown by their SMILES.

What all share (type): cell-based
In experiment [1] the target is Ba/F3 EGFR-D770-N771ins_SVD (Homo sapiens, UniProt P00533, DUP768-770, cells depend on it). As to the kind of experiment: Proliferation experiment of Ba/F3 cell line, EGFR-D770-N771ins_SVD (CellTiter-Glo). To be noted: cultured for 72 hrs with compound, CTG analysis, read-out: Ba/F3 EGFR-D770-N771ins_SVD IC50. In short, it runs like this:
(§1)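 […] Ba/F3 cells expressing EGFR insertion mutants treated 72 h at 37 °C with 9 concentrations, 3.16-fold dilutions, top 10 μM, 0.1% DMSO, in triplicate. Viability by CellTiter-Glo luminescence with T0 reference plate; IC50 (nM) from non-linear dose-response fit.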
In general terms: In ATP-based viability assays light output follows the ATP content of the culture.

A further experiment deals with A431 (EGFR-WT). As to the kind of experiment: Proliferation experiment, A431 cell line (CellTiter-Glo). Conditions: Homo sapiens, A-431; A431 cells, cultured for 72 hrs with compound, CTG analysis.
In experiment [2] the target is Ba/F3 EGFR-V769_D770insASV (Homo sapiens, UniProt P00533, DUP767-769, cells depend on it). Nature of the experiment: Proliferation experiment of Ba/F3 cell line, EGFR-V769_D770insASV (CellTiter-Glo). Conditions: cultured for 72 hrs with compound, CTG analysis, read-out: Ba/F3 EGFR-V769_D770insASV IC50. The method in brief:
as §1

Chain of Ba/F3 EGFR-V769_D770insASV (P00533 with tags, fused parts or gaps DUP767-769): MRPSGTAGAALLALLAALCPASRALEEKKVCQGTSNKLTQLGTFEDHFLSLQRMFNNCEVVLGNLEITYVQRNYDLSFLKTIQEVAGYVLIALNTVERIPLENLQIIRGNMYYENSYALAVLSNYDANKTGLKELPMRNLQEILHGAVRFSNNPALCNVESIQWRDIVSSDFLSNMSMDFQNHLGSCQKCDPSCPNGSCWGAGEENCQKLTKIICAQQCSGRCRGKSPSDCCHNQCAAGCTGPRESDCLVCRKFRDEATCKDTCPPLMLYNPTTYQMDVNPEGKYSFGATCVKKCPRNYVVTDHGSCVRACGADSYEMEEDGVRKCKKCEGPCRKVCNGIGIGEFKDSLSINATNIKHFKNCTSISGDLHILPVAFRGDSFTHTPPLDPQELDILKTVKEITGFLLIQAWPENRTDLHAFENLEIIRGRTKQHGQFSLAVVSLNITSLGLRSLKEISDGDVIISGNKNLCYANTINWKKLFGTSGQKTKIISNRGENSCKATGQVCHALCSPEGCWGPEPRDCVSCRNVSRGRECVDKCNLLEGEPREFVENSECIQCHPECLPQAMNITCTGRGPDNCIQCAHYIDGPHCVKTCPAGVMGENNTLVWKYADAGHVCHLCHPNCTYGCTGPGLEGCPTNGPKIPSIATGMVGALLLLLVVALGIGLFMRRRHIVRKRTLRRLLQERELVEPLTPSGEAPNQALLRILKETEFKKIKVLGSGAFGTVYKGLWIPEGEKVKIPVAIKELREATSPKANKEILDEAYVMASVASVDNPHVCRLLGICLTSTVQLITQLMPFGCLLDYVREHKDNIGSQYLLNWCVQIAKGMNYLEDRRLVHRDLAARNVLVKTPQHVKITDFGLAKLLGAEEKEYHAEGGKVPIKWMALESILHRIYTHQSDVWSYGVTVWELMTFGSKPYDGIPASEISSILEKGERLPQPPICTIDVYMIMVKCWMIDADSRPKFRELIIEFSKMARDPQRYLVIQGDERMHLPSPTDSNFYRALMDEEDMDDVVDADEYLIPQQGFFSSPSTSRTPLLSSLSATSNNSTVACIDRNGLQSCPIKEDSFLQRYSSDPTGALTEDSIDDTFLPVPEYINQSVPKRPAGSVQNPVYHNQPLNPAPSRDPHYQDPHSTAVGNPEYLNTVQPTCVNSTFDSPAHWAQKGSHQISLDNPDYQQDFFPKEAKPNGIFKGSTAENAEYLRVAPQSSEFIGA
Chain of Ba/F3 EGFR-D770-N771ins_SVD (P00533 with tags, fused parts or gaps DUP768-770): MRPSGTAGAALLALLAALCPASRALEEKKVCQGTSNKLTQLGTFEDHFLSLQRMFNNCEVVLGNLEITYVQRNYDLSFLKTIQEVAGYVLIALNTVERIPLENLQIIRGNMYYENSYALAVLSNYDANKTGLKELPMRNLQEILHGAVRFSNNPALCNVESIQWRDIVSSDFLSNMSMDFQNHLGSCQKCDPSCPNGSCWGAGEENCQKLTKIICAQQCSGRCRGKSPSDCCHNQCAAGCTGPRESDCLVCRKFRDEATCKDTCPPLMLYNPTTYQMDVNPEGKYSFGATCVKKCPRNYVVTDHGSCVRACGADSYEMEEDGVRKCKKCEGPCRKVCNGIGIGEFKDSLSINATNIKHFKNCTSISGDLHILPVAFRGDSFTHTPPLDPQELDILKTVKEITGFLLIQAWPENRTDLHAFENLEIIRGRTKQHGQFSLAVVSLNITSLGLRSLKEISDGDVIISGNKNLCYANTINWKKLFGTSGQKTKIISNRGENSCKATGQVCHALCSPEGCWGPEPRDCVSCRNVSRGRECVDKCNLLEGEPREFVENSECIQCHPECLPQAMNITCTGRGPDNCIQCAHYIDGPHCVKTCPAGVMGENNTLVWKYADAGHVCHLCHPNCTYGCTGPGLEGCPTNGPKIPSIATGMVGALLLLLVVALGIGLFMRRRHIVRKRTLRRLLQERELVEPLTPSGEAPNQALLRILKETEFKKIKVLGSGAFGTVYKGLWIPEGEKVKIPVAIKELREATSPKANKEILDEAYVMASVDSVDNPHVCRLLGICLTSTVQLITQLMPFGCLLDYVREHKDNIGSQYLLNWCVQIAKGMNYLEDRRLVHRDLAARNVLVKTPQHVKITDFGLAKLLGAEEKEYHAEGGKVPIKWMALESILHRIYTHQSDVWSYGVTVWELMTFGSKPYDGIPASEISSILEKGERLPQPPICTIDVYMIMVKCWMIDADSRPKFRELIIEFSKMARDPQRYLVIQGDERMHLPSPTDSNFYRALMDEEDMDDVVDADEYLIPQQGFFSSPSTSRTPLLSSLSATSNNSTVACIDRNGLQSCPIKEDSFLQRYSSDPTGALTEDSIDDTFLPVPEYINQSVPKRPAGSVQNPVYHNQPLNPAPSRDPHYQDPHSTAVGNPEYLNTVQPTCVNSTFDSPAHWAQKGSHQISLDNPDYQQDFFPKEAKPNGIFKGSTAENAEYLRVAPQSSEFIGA

Take `C=CC(=O)Nc1cc2c(Nc3ccc(F)c(-c4ccccc4)c3)ncnc2cc1OCCCN1CCN(C)CC1` [Example 48, N-(4-((6-fluoro-[1,1′-biphenyl]-3-yl)amino)-7-(3-(4-methylpiperazin-1-yl)propoxy)quinazolin-6-yl)acrylamide]: the results for the GI50 in experiment [1] and in experiment [2] were 0.0145 µM and 0.0414 µM, respectively. The IC50 with A431 (EGFR-WT) amounted to 0.026 µM.
With `C=CC(=O)Nc1cc2c(Nc3ccnc(-c4ccccc4F)c3)ncnc2cc1O[C@@H]1CCN(C2COC2)C1` [Example 114, (R)—N-(4-((2-(2-fluorophenyl)pyridin-4-yl)amino)-7-((1-(oxetan-3-yl)pyrrolidin-3-yl)oxy)quinazolin-6-yl)acrylamide], the GI50 in experiment [1] was 0.0011 µM; in experiment [2], 0.0033 µM. Moreover, the IC50 with A431 (EGFR-WT) worked out at 0.0263 µM.
`C=CC(=O)Nc1cc2c(Nc3cccc(-c4ccc(F)cc4)c3)ncnc2cc1OCCCN1CCOCC1` [Example 6, N-(4-((4′-fluoro-[1,1′-biphenyl]-3-yl)amino)-7-(3-morpholinopropoxy)quinazolin-6-yl)acrylamide]: the GI50 in experiment [1] came out at 0.0375 µM; in experiment [2] it was 0.089 µM. Also, the IC50 in the experiment with A431 (EGFR-WT) stood at 0.0614 µM.
Turning to `C=C(F)C(=O)Nc1cc2c(Nc3ccnc(-c4ccccc4F)c3)ncnc2cc1N1CCC(N2CCN(C)CC2)CC1` [Example 103, 2-fluoro-N-(4-((2-(2-fluorophenyl)pyridin-4-yl)amino)-7-(4-(4-methylpiperazin-1-yl)piperidin-1-yl)quinazolin-6-yl)acrylamide], the GI50 in experiment [1] is 0.03 µM; in experiment [2], 0.0061 µM. For the same molecule, the IC50 with A431 (EGFR-WT) was 0.015 µM.
The matching figures for `CN(C)C/C=C/C(=O)Nc1cc2c(Nc3ccnc(-c4ccccc4F)c3)ncnc2cc1O[C@@H]1CCN(C)C1` [Example 67, (R,E)-4-(dimethylamino)-N-(4-((2-(2-fluorophenyl)pyridin-4-yl)amino)-7-((1-methylpyrrolidin-3-yl)oxy)quinazolin-6-yl)but-2-enamide]: 0.0095 µM, 0.0115 µM and 0.0211 µM.
Turning to `C=CC(=O)Nc1cc2c(Nc3ccc(F)c(-c4ccccc4F)c3)ncnc2cc1OCCCN1CCOCC1` [Example 38, N-(4-((2′,6-difluoro-[1,1′-biphenyl]-3-yl)amino)-7-(3-morpholinopropoxy)quinazolin-6-yl)acrylamide], the GI50 in experiment [1] was 0.0236 µM; in experiment [2], 0.0315 µM. Besides, the IC50 in the experiment on A431 (EGFR-WT) amounted to 0.431 µM.
Regarding `C=CC(=O)Nc1cc2c(Nc3cccc(-c4ccc(F)cc4F)c3)ncnc2cc1OCCN1CCC(F)(F)CC1` [Example 21, N-(4-((2′,4′-difluoro-[1,1′-biphenyl]-3-yl)amino)-7-(2-(4,4-difluoropiperidin-1-yl)ethoxy)quinazolin-6-yl)acrylamide], the GI50 was determined as 0.104 µM in experiment [1] and 0.24 µM in experiment [2]. Further, the IC50 in the experiment with A431 (EGFR-WT) is 0.966 µM.
Consider `C=CC(=O)Nc1cc2c(Nc3cncc(-c4c(F)cccc4F)c3)ncnc2cc1O[C@@H]1CCN(C)C1` [Example 64, (R)-N-(4-((5-(2,6-difluorophenyl)pyridin-3-yl)amino)-7-((1-methylpyrrolidin-3-yl)oxy)quinazolin-6-yl)acrylamide], for which the GI50 in experiment [1] turned out to be 0.0345 µM; in experiment [2], 0.0636 µM. In addition, the IC50 with A431 (EGFR-WT) amounted to 1.01 µM.
